Reference: paper PMC9964544, “Evidence of Insulin-Sensitizing and Mimetic Activity of the Sesquiterpene Quinone Avarone, a Protein Tyrosine Phosphatase 1B and Aldose Reductase Dual Targeting Agent from the Marine Sponge Dysidea avara” (Pharmaceutics, 2023)
Entries after “also recorded” stand apart in the source; their conditions may differ.

Experiments:
[1] = system: human leukemia monocytic cells (THP-1); parameters: method as in PMID 32075136; settings: ref [19]; cited from earlier work
human recombinant AKR1B1 = molecular target: T1, human recombinant AKR1B1 (Homo sapiens, UniProt P15121); assay: Kinetic characterization and reversibility of AKR1B1 inhibition (Morrison equation, tight binding); format: biochemical
T1 construct: made in house
Excerpt: AKR1B1 activity measurements obtained at each substrate concentration were fitted by nonlinear regression analysis to the Morrison equation reported below (Equation (1)). (1) vi=1−([ET]+[I]+Kiapp)−([ET]+[I]+Kiapp)^2−4[ET][I]/2[ET]
This allowed the evaluation of Kiapp . In order to obtain the inhibition constants Ki (dissociation constant of the EI complex) and Ki′ , (dissociation constant of the EIS complex), the Kiapp values were plotted against substrate concentration and fitted by nonlinear regression analysis to the following equation:(2) Kiapp=([S]+ KM)/(KM/Ki+[S]/Ki′)
Panel A: the activity of the purified enzyme (10 mU) was measured at the indicated concentrations of avarone in the presence of the indicated L-idose concentrations. (B) Experimental data reported in (A) were fitted to the Morrison equation (see Materials and methods, Equation (1)).

C2C12 cells = assay: Glucose uptake assay (2-NBDG, flow cytometry) in C2C12 cells; format: cell-based; settings: 30 min
Protocol: To evaluate the impact of avarone (2) on the insulin signaling pathway, C2C12 cells were plated on P35 dishes and grown until 70% confluence. Then, cells were washed with phosphate-buffered saline (PBS) and incubated for 24 h in the presence of a starvation medium (DMEM high glucose containing 2 mM glutamine, 100 U/mL of penicillin, and 100 μg/mL of streptomycin). After this time, cells were stimulated for 30 min with 10 nM insulin (Humulin R, Ely Lilly, Italy) with avarone (2) or the insulin-avarone combination. After this time, cells were washed with cold PBS and lysed using 100 µL of 1X Laemmli sample buffer solution (50 mM Tris-HCl pH 6.8, 2% SDS, 10% glycerol, 1% β-mercaptoethanol, 12.5 mM EDTA, 0.02% bromophenol blue). Cell proteins were withdrawn, transferred in an Eppendorf tube and boiled for 5 min. All samples were stored at −20 °C before the analysis. Analysis of samples was carried out using SDS-PAGE; after electrophoresis, proteins were transferred on a PVDF membrane by Western blot. Phosphorylation levels of the insulin receptor β chain and of the kinase Akt were evaluated using specific antibodies: IR β subunit, clone CT-3 (MABS65) was from Santa Cruz Biotechnology (Santa Cruz, CA, USA); pIR β subunit, Y1162/1163 (sc-25103-R) was from Merck-Millipore (Burlington, MA, USA). Akt (9272S) and p-Akt (9271S) antibodies were from Cell Signaling Technology (Danvers, MA, USA). Finally, β-actin and clone C-4 (sc-47778) were from Merck-Millipore (Burlington, MA, USA). Anti-rabbit and anti-mouse secondary antibodies were from Santa Cruz Biotechnology (Santa Cruz, CA, USA). Detection was performed using Clarity western ECL substrates (BioRad Laboratories, Inc. 1000 Alfred Nobel DriveHercules, CA, USA). Quantitation of the images obtained was carried out using iBright Analysis Software (Thermo Fisher Scientific 168 Third Avenue Waltham, MA, USA, 02451). Glucose uptake was evaluated as previously described. […] Intrinsic and 2-NBDG-derived cell fluorescences were determined using a flow cytometer (FACSCanto II, BD Biosciences, San Jose, CA, USA). […] Quantitative analysis was carried out using FlowJo software (FlowJo^TM v10. BD FlowJo™ Software for Windows Version 10. Ashland, OR: Becton, Dickinson and Company; 2021).
Figure 8 Glucose uptake assay. […] After, cells were washed with PBS, detached using trypsin, collected by centrifugation, and analyzed using a flow cytometer (FACSCanto II, BD Biosciences). […] For each experiment, 10,000 events were analyzed. […] (B) Quantitation of fluorescence levels. […]
Figure 9 Impact of cytochalasin B on avarone-induced glucose uptake. […] After, cells were washed and incubated for 3 h with 40 µM 2-NBDG and then analyzed using a flow cytometer (FACSCanto II, BD Biosciences). For each experiment, 10,000 events were analyzed. […]

In the case of CC1=CCC[C@H]2[C@](C)(CC3=CC(=O)C=CC3=O)[C@@H](C)CC[C@]12C [avarone (2), avarone], the “cytotoxicity THP-1” value [1] is listed as “not cytotoxic”, the “type of AKR1B1 inhibition” value (human recombinant AKR1B1) is listed as ““tight binding” inhibitor; also recorded: non-competitive mixed-type inhibitor” and the “Ki' (dissociation constant of the EIS complex) AKR1B1” value (human recombinant AKR1B1; L-idose substrate, tight binding non-competitive model) is listed as 55 ± 8 nM. For the same molecule, the Ki (human recombinant AKR1B1; L-idose substrate, tight binding non-competitive model, read-out: Ki (dissociation constant of the EI complex) AKR1B1) was 410 ± 94 nM, the “glucose uptake (2-NBDG fluorescence), insulin-avarone combination” value (C2C12 cells; 25 µM avarone + 10 nM insulin, versus insulin alone) was “significantly increase” and the “glucose uptake (2-NBDG fluorescence)” value (C2C12 cells; 25 µM avarone alone, then 40 µM 2-NBDG 3 h) was “higher amounts of fluorescent glucose; also recorded: stimulates glucose uptake more efficiently than insulin itself”.
